In this experiment the target is T1, RORc ligand binding domain (Homo sapiens, UniProt P51449).
T1 construct: host or cells: E. coli
T1 sequence (P51449 269-508 limits assumed): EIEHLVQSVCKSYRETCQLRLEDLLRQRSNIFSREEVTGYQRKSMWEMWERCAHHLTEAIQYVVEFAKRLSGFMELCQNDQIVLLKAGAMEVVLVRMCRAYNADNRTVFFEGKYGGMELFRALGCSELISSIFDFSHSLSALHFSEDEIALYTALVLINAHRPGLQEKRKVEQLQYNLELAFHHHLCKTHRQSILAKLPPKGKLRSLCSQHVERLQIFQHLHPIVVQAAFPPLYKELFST
Kind of experiment: In vitro RORc ligand binding assay (25-[3H]hydroxycholesterol displacement, filter binding). The conditions noted are these: 6 nM 25-[3H]hydroxycholesterol, 0.6 ug/mL RORc receptor, 3 h at 25° C. Summed up:
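Compounds in 5% DMSO, either dose-response or screened at 1 and 10 uM, competed with 6 nM 25-[3H]hydroxycholesterol for 0.6 ug/mL RORc over 3 h at 25° C (HEPES pH 7.4, NaCl, MgCl2, DTT, BSA buffer). Bound tracer was filter-harvested and counted; nonspecific binding came from 1 uM 25-hydroxycholesterol.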

The structures appear in SMILES notation.

What is called IC50 is the concentration at which inhibition is half-maximal.

Regarding `CC1(C)[C@H]2CC[C@]1(C)c1nnc(Oc3c(F)cccc3F)cc12` [Example 99, (5R,8S)-3-(2,6-difluorophenoxy)-8,9,9-trimethyl-5,6,7,8-tetrahydro-5,8-methanocinnoline], the IC50 amounted to 280 nM.

The molecule `CC1(C)[C@H]2CC[C@]1(CO)c1nnc(Oc3c(F)cccc3F)cc12` [Example 145, ((5R,8R)-3-(2,6-difluorophenoxy)-9,9-dimethyl-5,6,7,8-tetrahydro-5,8-methanocinnolin-8-yl)methanol] gave an IC50 of 2000 nM. The molecule `CC1(C)[C@H]2C(=O)C[C@]1(C)c1nnc(-c3ccccc3F)cc12` [Example 127, (5R,8S)-3-(2-fluorophenyl)-8,9,9-trimethyl-7,8-dihydro-5,8-methanocinnolin-6(5H)-one] showed a half-maximal inhibitory concentration (IC50) of 1700 nM. As to `CC(C)OC1CN(C(=O)[C@]23CC[C@H](c4cc(-c5c(F)cccc5F)nnc42)C3(C)C)C1` [Example 235, ((5S,8S)-3-(2,6-difluorophenyl)-9,9-dimethyl-5,6,7,8-tetrahydro-5,8-methanocinnolin-8-yl)(3-isopropoxyazetidin-1-yl)methanone], the IC50 worked out at 844 nM. For `CC1(C)[C@H]2CC[C@]1(COc1cncc(=O)[nH]1)c1nnc(-c3c(F)cccc3F)cc12` [Example 330, 6-(((5R,8R)-3-(2,6-difluorophenyl)-9,9-dimethyl-5,6,7,8-tetrahydro-5,8-methanocinnolin-8-yl)methoxy)pyrazin-2(1H)-one], the IC50 was determined as 1980 nM.

As to `COCCN(C[C@@]12CC[C@@H](c3cc(-c4c(F)cccc4F)nnc31)C2(C)C)c1nnc(C)o1` [Example 149, N-(((5R,8S)-3-(2,6-difluorophenyl)-9,9-dimethyl-5,6,7,8-tetrahydro-5,8-methanocinnolin-8-yl)methyl)-N-(2-methoxyethyl)-5-methyl-1,3,4-oxadiazol-2-amine], the IC50 was 54 nM.

Take `CC1(C)[C@H]2CC[C@]1(C(=O)Nc1ccc(C#N)nc1)c1nnc(-c3ccccc3F)cc12` (stereo in doubt) [Example 169, (5R,8R)-N-(6-cyanopyridin-3-yl)-3-(2-fluorophenyl)-9,9-dimethyl-5,6,7,8-tetrahydro-5,8-methanocinnoline-8-carboxamide]: the IC50 is 3270 nM. To `CC1(C)[C@@H]2CC[C@@]1(C(=O)N1CC(F)C1)c1nnc(-c3c(F)cccc3F)cc12` [Example 93, [(5S,8S)-3-(2,6-difluorophenyl)-9,9-dimethyl-6,7-dihydro-5,8-methanocinnolin-8(5H)-yl](3-fluoroazetidin-1-yl)methanone] belongs 127 nM; to `CC1(C)[C@@H]2CC[C@@]1(C(=O)N1C3CCC1CC(O)C3)c1nnc(-c3c(F)cccc3F)cc12` (stereo partly drawn) [Example 261, ((5S,8S)-3-(2,6-difluorophenyl)-9,9-dimethyl-5,6,7,8-tetrahydro-5,8-methanocinnolin-8-yl)(3-hydroxy-8-azabicyclo[3.2.1]octan-8-yl)methanone], 1140 nM; to `CNC(=O)C1CCN(C(=O)[C@]23CC[C@H](c4cc(-c5c(F)cccc5F)nnc42)C3(C)C)C1` (stereo partly drawn) [Example 244, 1-((5S,8S)-3-(2,6-difluorophenyl)-9,9-dimethyl-5,6,7,8-tetrahydro-5,8-methanocinnoline-8-carbonyl)-N-methylpyrrolidine-3-carboxamide], 904 nM. To `CC1(C)[C@H]2CC[C@]1(c1ccccn1)c1nnc(-c3c(F)cccc3F)cc12` [Example 153] belongs 24 nM; to `CN(C)C(=O)[C@@]12CC[C@@H](c3cc(-c4c(F)cccc4F)nnc31)C2(C)C` [Example 82, (5R,8R)-3-(2,6-difluorophenyl)-N,N,9,9-tetramethyl-6,7-dihydro-5,8-methanocinnoline-8(5H)-carboxamide], 856 nM; to `CC1(C)[C@@H]2CC[C@@]1(C(=O)N1C3CCC1CC3)c1nnc(-c3c(F)cccc3F)cc12` [Example 247, 7-azabicyclo[2.2.1]heptan-7-yl((5S,8S)-3-(2,6-difluorophenyl)-9,9-dimethyl-5,6,7,8-tetrahydro-5,8-methanocinnolin-8-yl)methanone], 1110 nM. The result for `CCN(CC(N)=O)C[C@@]12CC[C@@H](c3cc(-c4c(F)cccc4F)nnc31)C2(C)C` [Example 304, 2-((((5R,8S)-3-(2,6-difluorophenyl)-9,9-dimethyl-5,6,7,8-tetrahydro-5,8-methanocinnolin-8-yl)methyl)(ethyl)amino) acetamide] reads 56 nM; that for `CC1(C)[C@H]2CC[C@]1(CN1CCOCC1)c1nnc(-c3c(F)cccc3F)cc12` [Example 56, (5R,8S)-3-(2,6-difluorophenyl)-9,9-dimethyl-8-(morpholin-4-ylmethyl)-5,6,7,8-tetrahydro-5,8-methanocinnoline], 252 nM; that for `CC1(C)[C@H]2CC[C@]1(c1ccn[nH]1)c1nnc(-c3c(F)cccc3F)cc12` [Example 113, (5R,8S)-3-(2,6-difluorophenyl)-9,9-dimethyl-8-(1H-pyrazol-5-yl)-5,6,7,8-tetrahydro-5,8-methanocinnoline], 43 nM.

Molecule `Cn1cc(-c2cc3c(nn2)[C@@]2(C)CC[C@@H]3C2(C)C)cn1` [Example 96, (5R,8S)-8,9,9-trimethyl-3-(1-methyl-1H-pyrazol-4-yl)-5,6,7,8-tetrahydro-5,8-methanocinnoline] had an IC50 of 5480 nM. The result for `CC1(C)[C@@H]2CC[C@@]1(C(=O)N1CC(CO)C1)c1nnc(-c3c(F)cccc3F)cc12` [Example 233, ((5S,8S)-3-(2,6-difluorophenyl)-9,9-dimethyl-5,6,7,8-tetrahydro-5,8-methanocinnolin-8-yl)(3-(hydroxymethyl)azetidin-1-yl)methanone] reads 819 nM.

The molecule `CC1(C)[C@H]2CC[C@]1(CNC1COC1)c1nnc(-c3c(F)cccc3F)cc12` [Example 317, N-(((5R,8S)-3-(2,6-difluorophenyl)-9,9-dimethyl-5,6,7,8-tetrahydro-5,8-methanocinnolin-8-yl)methyl)oxetan-3-amine] had an IC50 of 1920 nM. As to `CC1(C)[C@@H]2CC[C@@]1(C(=O)N1CCCC1)c1nnc(-c3c(F)cccc3F)cc12` [Example 69, [(5S,8S)-3-(2,6-difluorophenyl)-9,9-dimethyl-6,7-dihydro-5,8-methanocinnolin-8(5H)-yl](pyrrolidin-1-yl)methanone], the IC50 came out at 23 nM. To `CC1(C)[C@H]2CC[C@]1(c1nnc(CO)o1)c1nnc(-c3c(F)cccc3F)cc12` [Example 68, {5-[(5R,8R)-3-(2,6-difluorophenyl)-9,9-dimethyl-6,7-dihydro-5,8-methanocinnolin-8(5H)-yl]-1,3,4-oxadiazol-2-yl}methanol] belongs 116 nM; to `CC1(C)[C@H]2CC[C@]1(C(=O)N1CCC1)c1nnc(Oc3c(F)cccc3F)cc12` [Example 337, azetidin-1-yl((5R,8R)-3-(2,6-difluorophenoxy)-9,9-dimethyl-5,6,7,8-tetrahydro-5,8-methanocinnolin-8-yl)methanone], 540 nM. The result for `COc1cnc([C@@]23CC[C@@H](c4cc(-c5c(F)cccc5F)nnc42)C3(C)C)o1` [Example 195, 2-((5R,8R)-3-(2,6-difluorophenyl)-9,9-dimethyl-5,6,7,8-tetrahydro-5,8-methanocinnolin-8-yl)-5-methoxyoxazole] reads 40 nM; that for `CCN(C[C@@]12CC[C@@H](c3cc(-c4c(F)cccc4F)nnc31)C2(C)C)C(N)=O` [Example 159, 1-(((5R,8S)-3-(2,6-difluorophenyl)-9,9-dimethyl-5,6,7,8-tetrahydro-5,8-methanocinnolin-8-yl)methyl)-1-ethylurea], 26 nM; that for `CC1(C)[C@@H]2CC[C@@]1(C(=O)Nc1ccccc1S(C)(=O)=O)c1nnc(-c3ccccc3F)cc12` [Example 129, (5S,8S)-3-(2-fluorophenyl)-9,9-dimethyl-N-(2-(methylsulfonyl)phenyl)-5,6,7,8-tetrahydro-5,8-methanocinnoline-8-carboxamide], 1790 nM. To `CC1(C)[C@@H]2CC[C@@]1(C(=O)N1CC(O)C1)c1nnc(-c3c(F)cccc3F)cc12` [Example 86, [(5S,8S)-3-(2,6-difluorophenyl)-9,9-dimethyl-6,7-dihydro-5,8-methanocinnolin-8(5H)-yl](3-hydroxyazetidin-1-yl)methanone] belongs 97 nM; to `CC1(C)[C@H]2CC[C@]1(C)c1nnc(-c3c(F)cccc3F)cc12` [Example 1, (5R,8S)-3-(2,6-Difluorophenyl)-8,9,9-trimethyl-5,6,7,8-tetrahydro-5,8-methanocinnoline], 114 nM.

Molecule `CC(=O)Nc1ccc(-c2cc3c(nn2)[C@@]2(C)CC[C@@H]3C2(C)C)cn1` [Example 95, N-{5-[(5R,8S)-8,9,9-trimethyl-5,6,7,8-tetrahydro-5,8-methanocinnolin-3-yl]pyridin-2-yl}acetamide] displayed an IC50 of 3320 nM.

Molecule `CC1(C)[C@H]2CC[C@]1(CN1CCNC1=O)c1nnc(-c3c(F)cccc3F)cc12` [Example 268, 1-(((5R,8S)-3-(2,6-difluorophenyl)-9,9-dimethyl-5,6,7,8-tetrahydro-5,8-methanocinnolin-8-yl)methyl)imidazolidin-2-one] came in with an IC50 of 321 nM. To `CN(C)C(=O)N[C@@]12CC[C@@H](c3cc(-c4c(F)cccc4F)nnc31)C2(C)C` [Example 320, 3-((5R,8R)-3-(2,6-difluorophenyl)-9,9-dimethyl-5,6,7,8-tetrahydro-5,8-methanocinnolin-8-yl)-1,1-dimethylurea] belongs 1500 nM.
